Laboratory results reported in patent US6911418B2, “Method for treating a subterranean formation” (Schlumberger Technology Corporation, priority 2001, dated 2005).

Assay: pH resulting from the aqueous mixture
Format: physicochemical
Conditions: 20 percent tetrasodium, 28 percent dipotassium, 21 percent diammonium mixtures
Description: Calcium carbonate was stirred into each mixture until saturation was achieved. The amount of calcium carbonate dissolution was then determined by inductively coupled plasma.

Substance: tetrasodium ethylenediamine tetraacetate
- pH of aqueous mixture: about 12
